Structures can show the parent of a compound that is named as a salt.
These molecules were tested against T1, wild type human RORγt ligand binding domain (RORyt LBD) (Homo sapiens, UniProt P51449) (assay: RORγt ThermoFluor assay (thermal shift, binding affinity KD)). Conditions: not given.
T1 construct: His-tag (N); TurboTEV protease cleavage site (ENLYFQG) (N); made in house; host or cells: E. coli (pHIS1, modified pET vector)
T1 sequence (P51449 258-518): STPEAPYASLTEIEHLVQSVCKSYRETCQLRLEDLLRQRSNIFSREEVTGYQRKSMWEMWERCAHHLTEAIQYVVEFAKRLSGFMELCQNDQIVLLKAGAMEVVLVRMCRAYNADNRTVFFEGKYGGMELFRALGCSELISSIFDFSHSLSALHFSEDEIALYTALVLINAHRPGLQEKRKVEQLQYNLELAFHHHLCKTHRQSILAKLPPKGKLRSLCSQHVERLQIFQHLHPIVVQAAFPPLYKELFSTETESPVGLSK

Structure (SMILES) | Kd [nM]
COCCN(C)c1nc2ccc(C(O)(c3ccc(C(F)(F)F)nc3)c3cncn3C)cc2c(Cl)c1Cc1ccc(-n2cccn2)cc1 (centres unmarked) [Example 128, {4-Chloro-2-[(2-methoxyethyl)(methyl)amino]-3-[4-(1H-pyrazol-1-yl)benzyl]quinolin-6-yl}(1-methyl-1H-imidazol-5-yl)[6-(trifluoromethyl)pyridin-3-yl]methanol] | 97
CCc1nc2ccc(C(O)(c3cnnn3C)C3CN(C(C)=O)C3)cc2c(C#N)c1Cc1ccc(C(F)(F)F)cc1 (single isomer, unassigned) [Example 37, 6-((1-Acetylazetidin-3-yl)(hydroxy)(1-methyl-1H-1,2,3-triazol-5-yl)methyl)-2-ethyl-3-(4-(trifluoromethyl)benzyl)quinoline4-carbonitrile] | 1.9
CCc1nc2ccc(C(O)(c3cnc(C)n3C)C3CCOCC3)cc2c(Cl)c1Cc1ccc(C(F)(F)F)cc1 (single isomer, unassigned) [Example 34b, (4-Chloro-2-ethyl-3-(4-(trifluoromethyl)benzyl)quinolin-6-yl)(1,2-dimethyl-1H-imidazol-5-yl)(tetrahydro-2H-pyran-4-yl)methanol] | 0.03
COc1nc2ccc(C(O)(c3cnc(C)n3C)c3cnc(C)n3C)cc2c(Cl)c1Cc1cccc(C(F)(F)F)c1 [Example 5, (4-Chloro-2-methoxy-3-(3-(trifluoromethyl)benzyl)quinolin-6-yl)bis(1,2-dimethyt-1H-imidazol-5-yt)methanol•TFA] | 0.041
Cc1nc2ccc(C(O)(c3cnnn3C)c3cnc(C)n3C)cc2c(Cl)c1Cc1ccc(C(F)(F)F)cc1 (centres unmarked) [Example 29a, (4-Chloro-2-methyl-3-(4-(trifluoromethyl)benzyl)quinolin-6-yl)(1,2-dimethyl-1H-imidazol-5-yl)(1-methyl-1H-1,2,3-triazol-5-yl)methanol] | 0.06
CC(=O)N1CC(C(O)(c2ccc3nc(C)c(Cc4ccc(C(F)(F)F)cc4)c(Cl)c3c2)c2cnnn2C)C1 (single isomer, unassigned) [Example 32c, 1-(3-((4-Chloro-2-methyl-3-(4-(trifluoromethyl)benzyl)quinolin-6-yl)(hydroxy)(1-methyl-1H-1,2,3-triazol-5-yl)methyl)azetidin-1-yl)ethanone] | 1.3
CCc1nc2ccc(C(O)(c3cnnn3C)C3CCOCC3)cc2c(Cl)c1Cc1ccc(C(F)(F)F)cc1 (centres unmarked) [Example 33a, (4-Chloro-2-ethyl-3-(4-(trifluoromethyl)benzyl)quinolin-6-yl)(1-methyl-1H-1,2,3-triazol-5-yl)(tetrahydro-2H-pyran-4-yl)methanol] | 0.05
Cc1ccc(C(O)(c2ccc3nc(C)c(Cc4ccc(C(F)(F)F)cc4)c(Cl)c3c2)c2cnnn2C)c(C)n1 (single isomer, unassigned) [Example 28c, (4-Chloro-2-methyl-3-(4-(trifluoromethyl)benzyl)quinolin-6-yl)(2,6-dimethylpyridin-3-yl)(1-methyl-1H-1,2,3-triazol-5-yl)methanol] | 0.12
CCc1nc2ccc(C(O)(c3ccccc3)C3CCN(C(C)=O)CC3)cc2c(Cl)c1Cc1ccc(-n2cccn2)cc1 (centres unmarked) [Example 35, 1-(4-((3-(4-(1H-Pyrazol-1-yl)benzyl)4-chloro-2-ethylquinolin-6-yl)(hydroxy)(phenyl)methyl)piperidin-1-yl)ethanone] | 3

What follows are molecules tested against T2, wild type human RORγt LBD (Homo sapiens, UniProt P51449) (assay: RORγt (LBD) Reporter Assay (GAL4-luciferase, HEK293T cells)). Conditions: 6 µM compound concentration; 6 µM.
T2 construct: expressed in transfected cells; host or cells: HEK293T
T2 sequence (P51449 258-518): T1 sequence (P51449 258-518)
Assay type: cell-based

Structure (SMILES) | RORγt (LBD) Reporter Assay, % inhibition @ 6 µM [%]
COc1nc2ccc(C(O)(c3ccccn3)c3cncn3C)cc2c(Cl)c1Cc1ccc(-n2cccn2)cc1 (single isomer, unassigned) [Example 64c, (3-(4-(1H-Pyrazol-1-yl)benzyl)-4-chloro-2-methoxyquinolin-6-yl)(1-methyl-1H-imidazol-5-yl)(pyridin-2-yl)methanol] | 107

Same assay, conditions: 6 µM compound concentration; HEK293T cells; 6 µM

Structure (SMILES) | RORγt (LBD) Reporter Assay, % inhibition @ 6 µM [%]
COc1nc2ccc(C(O)(c3oc(C)nc3C)c3cnnn3C)cc2c(Cl)c1Cc1ccc(C(F)(F)F)cc1 (single isomer, unassigned) [Example 156c, (4-chloro-2-methoxy-3-(4-(trifluoromethyl)benzyl)quinolin-6-yl)(2,4-dimethylozazol-5-yl)(1-methyl-1H-1,2,3-triazol-5-yl)methanol] | 99
CNC(c1ccc2nc(OC)c(Cc3ccc(C(F)(F)F)cc3)c(Cl)c2c1)(c1ccc(C)nc1C)c1cnnn1C (single isomer, unassigned) [Example 121c, 1-(4-Chloro-2-methoxy-3-(4-(trifluoromethyl)benzyl)quinolin-6-yl)-1-(2,6-dimethylpyridin-3-yl)-N-methyl-1-(1-methyl-1H-1,2,3-triazol-5-yl)methanamine•TFA] | 101
COc1nc2ccc(C(N)(c3ccc(C(F)(F)F)nc3)c3cncn3C)cc2c(Cl)c1Cc1ccccc1 (single isomer, unassigned) [Example 120b, (3-Benzyl-4-chloro-2-methoxyquinolin-6-yl)(1-methyl-1H-imidazol-5-yl)(6-(trifluoromethyl)pyridin-3-yl)methanamine•TFA] | 27
Cn1cncc1C(O)(c1ccc(C(F)(F)F)nc1)c1ccc2nc(-n3cccn3)c(Cc3ccccc3)c(C#N)c2c1 (single isomer, unassigned) [Example 114c, 3-Benzyl-6-(hydroxy(1-methyl-1H-imidazol-5-yl)(6-(trifluoromethyl)pyridin-3-yl)methyl)-2-(1H-pyrazol-1-yl)quinoline-4-carbonitrile•TFA] | 71

Same assay, conditions: HEK293T cells

Structure (SMILES) | IC50 [nM]
Cn1cncc1C(O)(c1ccc(Cl)cc1)c1ccc2nc(Cl)c(Cc3ccc(C(F)(F)F)cc3)c(Cl)c2c1 (centres unmarked) [Example 155, (4-chlorophenyl)(2,4-dichloro-3-(4-(trifluoromethyl)benzyl)quinolin-6-yl)(1-methyl-1H-imidazol-5-yl)methanol•TFA] | 160
CCN(CC)c1nc2ccc(C(O)(c3ccc(Cl)cc3)c3cncn3C)cc2c(C#N)c1Cc1ccc(-n2cccn2)cc1 (single isomer, unassigned) [Example 154b, 3-(4-(1H-pyrazol-1-yl)benzyl)-6-((4-chlorophenyl)(hydroxy)(1-methyl-1H-imidazol-5-yl)methyl)-2-(diethylamino)quinoline4-carbonitrile] | 140

Same assay, conditions: HEK293T cells; value after the comma with ∼, > or < could not be included in the average

Structure (SMILES) | IC50 [nM]
COc1nc2ccc(C(O)(c3cnnn3C)c3cnc(C)n3C)cc2c(C#N)c1Cc1ccc(C(F)(F)F)nc1 (centres unmarked) [Example 44a, 6-((1,2-Dimethyl-1H-imidazol-5-yl)(hydroxy)(1-methyl-1H-1,2,3-triazol-5-yl)methyl)-2-methoxy-3-((6-(trifluoromethyl)pyridin-3-yl)methyl)quinoline-4-carbonitrile] | 7.6

Same assay, conditions: HEK-293T, read-out: RORγt (LBD) Reporter Assay, % inhibition @ 6 µM, 6 µM compound concentration

Structure (SMILES) | inhibition at 6 µM [%]
COc1nc2ccc(C(O)(c3ccc(C)nc3C)c3cnnn3C)cc2c(Cl)c1Cc1ccc(C(F)(F)F)nc1 (centres unmarked) [Example 40a, (4-Chloro-2-methoxy-3-((6-(trifluoromethyl)pyridin-3-yl)methyl)quinolin-6-yl)(2,6-dimethylpyridin-3-yl)(1-methyl-1H-1,2,3-triazol-5-yl)methanol] | 98
COc1nc2ccc(C(O)(c3cnnn3C)c3cnc(C)n3C)cc2c(Cl)c1Cc1ccc(F)cc1 (single isomer, unassigned) [Example 65b] | 74
COc1c(Cc2ccccc2)c(C(F)(F)F)nc2ccc(C(O)(c3ccc(Cl)cc3)c3cncn3C)cc12 (racemic) [Example 101a, (3-Benzyl-4-methoxy-2-(trifluoromethyl)quinolin-6-yl)(4-chlorophenyl)(1-methyl-1H-imidazol-5-yl)methanol•TFA] | 96
COc1nc2ccc(C(O)(c3cnnn3C)c3cnc(C)n3C)cc2c(C#N)c1Cc1ccc(C(F)(F)F)nc1 (centres unmarked) [Example 44a, 6-((1,2-Dimethyl-1H-imidazol-5-yl)(hydroxy)(1-methyl-1H-1,2,3-triazol-5-yl)methyl)-2-methoxy-3-((6-(trifluoromethyl)pyridin-3-yl)methyl)quinoline-4-carbonitrile] | 97

Same assay, conditions: HEK-293T, read-out: RORγt (LBD) Reporter Assay, % inhibition @ 6 µM, 6 µM compound concentration; HEK293T cells

Structure (SMILES) | inhibition at 6 µM [%]
Cn1cncc1C(O)(c1ccc(C(F)(F)F)nc1)c1ccc2nc(-c3nccn3C)c(Cc3ccccc3)c(Cl)c2c1 (single isomer, unassigned) [Example 113c, (3-Benzyl-4-chloro-2-(1-methyl-1H-imidazol-2-yl)quinolin-6-yl)(1-methyl-1H-imidazol-5-yl)(6-(trifluoromethyl)pyridin-3-yl)methanol•TFA] | 90
CC(=O)N1CCC(C(O)(c2ccc3nc(C(F)(F)F)c(Cc4ccccc4)c(Cl)c3c2)c2cncn2C)CC1 (single isomer, unassigned) [Example 115b, 1-(4-((3-Benzyl-4-chloro-2-(trifluoromethyl)quinolin-6-yl)(hydroxy)(1-methyl-1H-imidazol-5-yl)methyl)piperidin-1-yl)ethanone•TFA] | 67
Cn1cncc1C(O)(c1ccc(Cl)cc1)c1ccc2nc(Cl)c(Cc3ccc(C(F)(F)F)cc3)c(Cl)c2c1 (centres unmarked) [Example 155, (4-chlorophenyl)(2,4-dichloro-3-(4-(trifluoromethyl)benzyl)quinolin-6-yl)(1-methyl-1H-imidazol-5-yl)methanol•TFA] | 88
COc1nc2ccc(C(c3ccc(C)nc3C)(c3cnnn3C)N(C)C)cc2c(Cl)c1Cc1ccc(C(F)(F)F)cc1 (single isomer, unassigned) [Example 122b, 1-(4-Chloro-2-methoxy-3-(4-(trifluoromethyl)benzyl)quinolin-6-yl)-1-(2,6-dimethylpyridin-3-yl)-N,N-dimethyl-1-(1-methyl-1H-1,2,3-triazol-5-yl)methanamine•TFA] | 98
Cn1cncc1C(O)(c1ccc(C(F)(F)F)nc1)c1ccc2nc(-n3cccn3)c(Cc3ccccc3)c(C#N)c2c1 (single isomer, unassigned) [Example 114b, 3-Benzyl-6-(hydroxy(1-methyl-1H-imidazol-5-yl)(6-(trifluoromethyl)pyridin-3-yl)methyl)-2-(1H-pyrazol-1-yl)quinoline-4-carbonitrile•TFA] | 86
